# In patent publication US11414422B2, “Substituted pyrido[4,3-b]indoles and azepino[4,5-b]indoles as inhibitors of cGAS” (The Rockefeller University, priority 2018, dated 2022):
# Read-outs that look alike come from different tables or passages of the source.
# Assays:
# h-cGAS = target: T1, h-cGAS (Homo sapiens, UniProt Q8N884); experiment: cGAS biochemical assay, RapidFire 365 mass spectrometry (RF-MS); conditions: full-length h-cGAS 100 nM, dsDNA 25 nM, ATP and GTP 100 μM, 7 h at RT
# T1 construct: The final concentration of full-length h-cGAS, dsDNA, ATP, and GTP were 100 nM
# T1 sequence (Q8N884 whole entry): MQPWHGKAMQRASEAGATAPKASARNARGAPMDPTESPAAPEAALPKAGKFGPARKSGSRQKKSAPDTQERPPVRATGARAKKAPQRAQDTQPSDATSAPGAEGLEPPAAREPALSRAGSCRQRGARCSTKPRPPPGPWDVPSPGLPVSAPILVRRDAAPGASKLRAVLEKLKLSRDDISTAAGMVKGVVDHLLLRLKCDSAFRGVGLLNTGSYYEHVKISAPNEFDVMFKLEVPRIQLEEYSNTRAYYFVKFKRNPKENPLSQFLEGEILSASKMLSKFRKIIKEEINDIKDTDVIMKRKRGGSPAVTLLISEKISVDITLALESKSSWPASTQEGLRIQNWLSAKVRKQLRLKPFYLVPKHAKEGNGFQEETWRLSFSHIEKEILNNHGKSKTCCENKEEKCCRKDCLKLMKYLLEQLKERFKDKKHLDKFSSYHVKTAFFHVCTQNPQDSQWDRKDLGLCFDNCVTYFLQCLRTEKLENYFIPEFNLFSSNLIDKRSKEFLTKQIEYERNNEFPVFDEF
# THP1-Dual cells = experiment: Cell-based Lucia luciferase assay in THP1-Dual cells (dsDNA transfection); conditions: Homo sapiens, 1 h pre-incubation, 100-bp dsDNA transfection for 24 h
# THP1 cells = experiment: IFNB1 mRNA expression, qRT-PCR, THP1 cells; assay type: cell-based; conditions: Homo sapiens, read-out: THP1, qRT-PCR IC50
# [1] = tested on: primary human macrophage cells; experiment: IFNB1 mRNA expression, qRT-PCR, primary human macrophages; assay type: cell-based; conditions: read-out: Human Macrophage, qRT-PCR IC50
# human PBMCs = experiment: IFNB1 mRNA expression, qRT-PCR, human PBMCs; assay type: cell-based; conditions: PBMC, 4 hours post-transfection of dsDNA
# [2] = THP-1, IFNB1 mRNA, 4 hours post-transfection of dsDNA
# [3] = IFNB1 mRNA, 4 hours post-transfection of dsDNA
# [4] = fresh PBMCs, read-out: Fresh human PBMCs, qRT-PCR IC50
SMILES,IC50 (h-cGAS) [µM],IC50 (THP1-Dual cells) [µM],other results
Cn1c2c(c3ccc(Cl)c(F)c31)CN(C(=O)CO)CC2 [TDI-006570],0.138,> 40,–
"O=C(CO)N1CCc2[nH]c3c(Cl)c(Cl)cc(-c4cn[nH]c4)c3c2C1 [TDI-007445, 1-(6,7-Dichloro-9-(1H-pyrazol-4-yl)-1,3,4,5-tetrahydro-2H-pyrido[4,3-b]indol-2-yl)-2-hydroxyethan-1-one]",–,5.26,"IC50 (THP1 cells; [2]): 1.44 µM; IC50 [1, 3]: 1.2 µM"
Cn1cc(-c2cc(Cl)c(Cl)c3[nH]c4c(c23)CN(C(=O)CO)CC4)cn1 [TDI-007635],0.0428,8.14,IC50 (THP1 cells; [2]): 2.14 µM
O=C(CO)N1CCc2[nH]c3c(Cl)c(Cl)cc(-c4ccco4)c3c2C1 [TDI-008070],0.0228,4.95,–
O=C(CO)N1CCc2[nH]c3c(Cl)c(Cl)cc(-c4ccccc4)c3c2C1 [TDI-008071],0.0393,9,–
O=C(CO)N1CCc2[nH]c3c(Cl)c(Cl)cc(-c4cccnc4)c3c2C1 [TDI-008073],0.0204,6.23,–
O=C(CO)N1CCc2[nH]c3c(Cl)c(Cl)cc(-c4cncnc4)c3c2C1 [TDI-008074],0.0194,6.85,–
Cn1ccc(-c2cc(Cl)c(Cl)c3[nH]c4c(c23)CN(C(=O)CO)CC4)n1 [TDI-008077],0.0146,3.32,"IC50 (THP1 cells; [2]): 0.93 µM; IC50 [1, 3]: 0.86 µM; IC50 (human PBMCs; [4]): 1.15 µM"
Nc1ccc(-c2cc(Cl)c(Cl)c3[nH]c4c(c23)CN(C(=O)CO)CC4)cn1 [TDI-008087],–,1.97,"IC50 (THP1 cells; THP-1, 4 h): 0.95 µM; IC50 ([1]; 4 h): 0.62 µM"
O=C(CO)N1CCc2[nH]c3c(Cl)c(Cl)cc(-c4cnn5ccccc45)c3c2C1 [TDI-008116],0.0252,6.43,–
O=C(CO)N1CCc2[nH]c3c(Cl)c(Cl)cc(-c4ccc5nonc5c4)c3c2C1 [TDI-008117],0.0182,6.19,–
O=C(CO)N1CCc2c(c3ccc(Br)c(F)c3n2CC(F)(F)F)C1 [TDI-008130],1.12,25.8,–
O=C(CO)N1CCc2c(c3c(-c4cn[nH]c4)cc(Cl)c(F)c3n2C(F)F)C1 [TDI-008136],0.416,15.9,–
O=C(CO)N1CCc2c(c3ccc(Br)c(F)c3n2C(F)F)C1 [TDI-008179],0.506,34,–
O=C(CO)N1CCc2[nH]c3c(F)c(Cl)cc(-c4cn[nH]c4)c3c2C1 [TDI-008185],0.0322,9.9,–
"Cn1ccc(-c2cc(Cl)c(F)c3[nH]c4c(c23)CN(C(=O)CO)CC4)n1 [TDI-008246, 1-(7-Chloro-6-fluoro-9-(1-methyl-1H-pyrazol-3-yl)-1,3,4,5-tetrahydro-2H-pyrido[4,3-b]indol-2-yl)-2-hydroxyethan-1-one]",0.023,1.7,"IC50 (THP1 cells; [2]): 1.09 µM; IC50 [1, 3]: 0.6 µM; IC50 (human PBMCs; freeze-thawed PBMCs, read-out: Freeze-thawed human PBMCs, qRT-PCR IC50): 1.16 µM; IC50 (human PBMCs; [4]): 1.12 µM"

SMILES,IC50 (h-cGAS) [µM],IC50 (THP1-Dual cells) [µM],other results
COCCn1c2c(c3c(-c4ccn(C)n4)cc(Cl)c(F)c31)CN(C(=O)CO)CC2 [TDI-008292],0.402,> 40,–
CCn1ccc(-c2cc(Cl)c(Cl)c3[nH]c4c(c23)CN(C(=O)CO)CC4)n1 [TDI-008371],0.0232,6.52,–
COCCc1cc(Cl)c(Cl)c2[nH]c3c(c12)CN(C(=O)CO)CC3 [TDI-008438],0.112,–,–
O=C(CO)N1CCc2[nH]c3c(Cl)c(Cl)cc(CC4CCCC4)c3c2C1 [TDI-008439],0.663,–,–
O=C(CO)N1CCc2[nH]c3c(Cl)c(Cl)cc(CN4CCCC4)c3c2C1 [TDI-008440],2.23,–,–
O=C(CO)N1CCc2[nH]c3c(Cl)c(Cl)cc(CN4CCCCC4)c3c2C1 [TDI-008441],5.22,–,–
O=C(CO)N1CCc2[nH]c3c(Cl)c(Cl)cc(CN4CCOCC4)c3c2C1 [TDI-008442],0.706,–,–
O=C(CO)N1CCc2[nH]c3c(Cl)c(Cl)cc(Cc4ccc(-n5cccn5)cc4)c3c2C1 [TDI-008443],0.586,–,–
Cn1nccc1-c1cc(Cl)c(Cl)c2[nH]c3c(c12)CN(C(=O)CO)CC3 [TDI-008444],3.24,–,–
Cc1cc(-c2cc(Cl)c(Cl)c3[nH]c4c(c23)CN(C(=O)CO)CC4)ccn1 [TDI-008445],0.035,–,–
Cc1ncccc1-c1cc(Cl)c(Cl)c2[nH]c3c(c12)CN(C(=O)CO)CC3 [TDI-008446],0.901,–,–
Cc1cncc(-c2cc(Cl)c(Cl)c3[nH]c4c(c23)CN(C(=O)CO)CC4)c1 [TDI-008447],0.0249,–,–
O=C(CO)N1CCc2[nH]c3c(Cl)c(Cl)cc(-c4cncc(F)c4)c3c2C1 [TDI-008448],0.0259,–,–
CN1CC=C(c2cc(Cl)c(Cl)c3[nH]c4c(c23)CN(C(=O)CO)CC4)CC1 [TDI-008449],0.42,–,–
O=C(CO)N1CCc2[nH]c3c(Cl)c(Cl)cc(-c4cncc(CO)c4)c3c2C1 [TDI-008450],0.0545,–,–
